Legend:
Format in all cases: in vivo
[1] = system: spanishneedles (Bidens bipinnata); assay: Test D pre-/postemergence plant response
How it was run: (§1)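 Under greenhouse conditions for 14 to 21 days, plants treated pre- or postemergence with surfactant-formulated compound were compared by eye with untreated controls and scored 0–100 (100 = complete control; dash = no result).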

[2] = system: groundsel (common groundsel, Senecio vulgaris); assay: Test D pre-/postemergence plant response; conditions: Postemergence
How it was run: as §1

[3] = system: sandbur (southern sandbur, Cenchrus echinatus); assay: Test D pre-/postemergence plant response
How it was run: as §1

[4] = system: Russian thistle (Salsola kali); assay: Test D pre-/postemergence plant response
How it was run: as §1

[5] = system: bermudagrass (Cynodon dactylon); assay: Test D pre-/postemergence plant response
How it was run: as §1

[6] = system: prickly sida (Sida spinosa); assay: Test D pre-/postemergence plant response
How it was run: as §1

[7] = system: dayflower (Virginia (VA) dayflower, Commelina virginica); assay: Test D pre-/postemergence plant response
How it was run: as §1

[8] = system: ragweed (common ragweed, Ambrosia elatior); assay: Test D pre-/postemergence plant response
How it was run: as §1

[9] = system: dallisgrass (Paspalum dilatatum); assay: Test D pre-/postemergence plant response
How it was run: as §1

[10] = system: quackgrass (Elytrigia repens); assay: Test D pre-/postemergence plant response
How it was run: as §1

[11] = system: nightshade (eastern black nightshade, Solanum ptycanthum); assay: Test B pre-/postemergence plant response; conditions: Preemergence
How it was run: (§2)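 Visual ratings on a 0–100 scale (100 = complete control) were made versus untreated controls 13–15 days after treatment in a greenhouse. Compounds in surfactant-containing non-phytotoxic solvent were applied preemergence to seeds in loam–sand blend or postemergence to 1- to 4-leaf plants (2–18 cm).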

[12] = system: sunflower (common oilseed sunflower, Helianthus annuus); assay: Test B pre-/postemergence plant response; conditions: Preemergence
How it was run: as §2

[13] = system: galium (catchweed bedstraw, Galium aparine); assay: Test B pre-/postemergence plant response; conditions: Preemergence
How it was run: as §2

[14] = Postemergence, 31 g ai/ha, scale 0 to 100
[15] = Postemergence, 62 g ai/ha, scale 0 to 100 (0 no effect, 100 complete control)
[16] = Postemergence, 125 g ai/ha, scale 0 to 100 (0 no effect, 100 complete control)
[17] = Postemergence, 16 g ai/ha, scale 0 to 100
[18] = Preemergence, 16 g ai/ha, scale 0 to 100, 0 no effect, 100 complete control
[19] = Preemergence, 31 g ai/ha, scale 0 to 100 (0 no effect, 100 complete control)
[20] = Preemergence, 125 g ai/ha, scale 0 to 100
[21] = 62 g ai/ha, scale 0 to 100 (0 no effect, 100 complete control)
[22] = 125 g ai/ha, scale 0 to 100 (0 no effect, 100 complete control)
[23] = Postemergence, 31 g ai/ha, scale 0 to 100 (0 no effect, 100 complete control)
[24] = Preemergence, 62 g ai/ha, scale 0 to 100
[25] = 31 g ai/ha, scale 0 to 100 (0 no effect, 100 complete control)
[26] = 125 g ai/ha, scale 0 to 100, 0 no effect, 100 complete control
[27] = Postemergence, 250 g ai/ha, scale 0 to 100 (0 no effect, 100 complete control)

O=C1CCCC(O)=C1C(=O)c1cnc(-c2ccccc2)n(CC2CCCO2)c1=O (centres unmarked) [Compound 59]
Plant response rating, Spanishneedles [1, 14]: 50 | Plant response rating, Spanishneedles [1, 15]: 70 | Plant response rating, Spanishneedles [1, 16]: 70 | Plant response rating, Spanishneedles [1, 17]: 30 | Plant response rating, Spanishneedles [1, 18]: 0 | Plant response rating, Spanishneedles [1, 19]: 0 | Plant response rating, Spanishneedles [1, 20]: 90 | Plant response rating, Groundsel ([2]; 31 g ai/ha, scale 0 to 100): 90 | Plant response rating, Groundsel [2, 21]: 100 | Plant response rating, Groundsel [2, 22]: 100 | Plant response rating, Groundsel ([2]; 16 g ai/ha, scale 0 to 100): 70 | Plant response rating, Sandbur [3, 14]: 5 | Plant response rating, Sandbur [3, 15]: 5 | Plant response rating, Sandbur [3, 16]: 25 | Plant response rating, Sandbur [3, 17]: 5 | Plant response rating, Sandbur [3, 18]: 0 | Plant response rating, Sandbur [3, 19]: 0 | Plant response rating, Sandbur [3, 20]: 0 | Plant response rating, Russian Thistle [4, 16]: 65 | Plant response rating, Russian Thistle [4, 19]: 90 | Plant response rating, Russian Thistle [4, 20]: 100 | Plant response rating, Bermudagrass [5, 23]: 40 | Plant response rating, Bermudagrass [5, 15]: 70 | Plant response rating, Bermudagrass [5, 16]: 80 | Plant response rating, Bermudagrass [5, 17]: 35 | Plant response rating, Bermudagrass [5, 18]: 0 | Plant response rating, Bermudagrass [5, 19]: 0 | Plant response rating, Bermudagrass [5, 24]: 40 | Plant response rating, Bermudagrass [5, 20]: 90 | Plant response rating, Prickly Sida [6, 14]: 40 | Plant response rating, Prickly Sida [6, 15]: 70 | Plant response rating, Prickly Sida [6, 16]: 70 | Plant response rating, Prickly Sida [6, 17]: 40 | Plant response rating, Prickly Sida [6, 18]: 0 | Plant response rating, Prickly Sida [6, 19]: 0 | Plant response rating, Prickly Sida [6, 24]: 5 | Plant response rating, Prickly Sida [6, 20]: 65 | Plant response rating, Dayflower, VA [7, 15]: 60 | Plant response rating, Dayflower, VA [7, 17]: 25 | Plant response rating, Dayflower, VA [7, 19]: 0 | Plant response rating, Dayflower, VA [7, 24]: 35 | Plant response rating, Dayflower, VA [7, 20]: 35 | Plant response rating, Ragweed [8, 14]: 70 | Plant response rating, Ragweed [8, 16]: 80 | Plant response rating, Ragweed [8, 17]: 70 | Plant response rating, Ragweed [8, 18]: 0 | Plant response rating, Ragweed [8, 19]: 50 | Plant response rating, Ragweed [8, 20]: 100 | Plant response rating, Dallisgrass [9, 14]: 10 | Plant response rating, Dallisgrass [9, 15]: 20 | Plant response rating, Dallisgrass [9, 16]: 50 | Plant response rating, Dallisgrass [9, 17]: 10 | Plant response rating, Dallisgrass [9, 18]: 0 | Plant response rating, Dallisgrass [9, 19]: 0 | Plant response rating, Dallisgrass [9, 24]: 65 | Plant response rating, Dallisgrass [9, 20]: 75 | Plant response rating, Quackgrass [10, 14]: 0 | Plant response rating, Quackgrass [10, 15]: 0 | Plant response rating, Quackgrass [10, 16]: 0 | Plant response rating, Quackgrass [10, 17]: 0 | Plant response rating, Quackgrass [10, 18]: 0 | Plant response rating, Quackgrass [10, 19]: 0 | Plant response rating, Quackgrass [10, 20]: 0 | Plant response rating, Nightshade [11, 25]: 95 | Plant response rating, Nightshade [11, 21]: 98 | Plant response rating, Nightshade [11, 26]: 100 | Plant response rating, Sunflower [12, 25]: 55 | Plant response rating, Sunflower [12, 21]: 65 | Plant response rating, Sunflower [12, 26]: 70 | Plant response rating, Galium ([13]; 250 g ai/ha, 0 to 100 scale): 98 | Plant response rating, Galium [13, 25]: 0 | Plant response rating, Galium [13, 21]: 90 | Plant response rating, Galium [13, 26]: 95

COCCCn1c(-c2cccc(F)c2)ncc(C(=O)C2=C(O)C3CCC(C3)C2=O)c1=O (centres unmarked) [Compound 238]
Plant response rating, Spanishneedles [1, 14]: 65 | Plant response rating, Spanishneedles [1, 15]: 70 | Plant response rating, Spanishneedles [1, 16]: 70 | Plant response rating, Spanishneedles [1, 27]: 75 | Plant response rating, Groundsel ([2]; 31 g ai/ha, scale 0 to 100): 100 | Plant response rating, Groundsel [2, 21]: 100 | Plant response rating, Groundsel [2, 22]: 100 | Plant response rating, Groundsel ([2]; 250 g ai/ha, scale 0 to 100 (0 no effect, 100 complete control)): 100 | Plant response rating, Sandbur [3, 14]: 50 | Plant response rating, Sandbur [3, 15]: 75 | Plant response rating, Sandbur [3, 16]: 75 | Plant response rating, Sandbur [3, 27]: 85 | Plant response rating, Russian Thistle [4, 14]: 30 | Plant response rating, Russian Thistle [4, 15]: 40 | Plant response rating, Russian Thistle [4, 16]: 50 | Plant response rating, Russian Thistle [4, 27]: 50 | Plant response rating, Bermudagrass [5, 23]: 80 | Plant response rating, Bermudagrass [5, 15]: 90 | Plant response rating, Bermudagrass [5, 16]: 95 | Plant response rating, Bermudagrass [5, 27]: 95 | Plant response rating, Prickly Sida [6, 14]: 30 | Plant response rating, Prickly Sida [6, 15]: 30 | Plant response rating, Prickly Sida [6, 16]: 50 | Plant response rating, Prickly Sida [6, 27]: 65 | Plant response rating, Dayflower, VA [7, 14]: 35 | Plant response rating, Dayflower, VA [7, 15]: 65 | Plant response rating, Dayflower, VA [7, 16]: 70 | Plant response rating, Dayflower, VA [7, 27]: 75 | Plant response rating, Ragweed [8, 14]: 70 | Plant response rating, Ragweed [8, 15]: 75 | Plant response rating, Ragweed [8, 16]: 75 | Plant response rating, Ragweed [8, 27]: 75 | Plant response rating, Dallisgrass [9, 14]: 10 | Plant response rating, Dallisgrass [9, 15]: 65 | Plant response rating, Dallisgrass [9, 16]: 70 | Plant response rating, Dallisgrass [9, 27]: 75 | Plant response rating, Quackgrass [10, 14]: 5 | Plant response rating, Quackgrass [10, 15]: 5 | Plant response rating, Quackgrass [10, 16]: 30 | Plant response rating, Quackgrass [10, 27]: 40

Reference: US8952024B2, “Herbicidal pyrimidone derivatives” (E I du Pont de Nemours and Company, priority 2009, dated 2015)
